The values that follow come from patent US12291651B2, “Liquid crystal-infused slippery anti-fouling surfaces” (priority 2021, dated 2025).

For data set [1] the following is noted: air-water interface; cited from earlier work.
A short description of data set [2]: Contact angle and base diameter of surfactant droplets on LC-infused SLIPS. The class given is physicochemical. Particulars: 50 μL droplets: 100 mM DBTAB aqueous; 100 μM SDS in PBS.
Data set [3] has as its system S. aureus QS. Description: Sliding time of droplets of S. aureus WT culture grown with QS inhibitor on LC-infused SLIPS. The class given is cell-based. Particulars: WT S. aureus cultured 24 hours with 1 μM inhibitor; QS mutant ~7 s, WT ~27 s. The protocol:
Characterization of Droplet Sliding Times. Characterization of the sliding times of droplets placed on the surfaces of LC-infused SLIPS was performed in the following general manner. LC-infused SLIPS were placed on a custom-made stage, and the stage was attached to the moving arm of a digital protractor using binding clips. The digital protractor was set at a specified sample angle, and a pre-determined volume of aqueous solution was placed as a droplet on the surface of the liquid-infused surface. Sliding droplets were recorded on digital video, and the time required for droplets to slide 4.0 cm along the surface was measured using a digital timer. […] For each surfactant solution, the sliding times of at least 3-5 droplets were measured and used to calculate an average sliding time with standard deviation. […]
Additional experiments were performed to determine whether LC-infused SLIPS could detect the presence of PSMs in live cultures of S. aureus and, thereby, provide methods to monitor QS in communities of this pathogen in ways analogous to the studies of P. aeruginosa above. For these experiments, a S. aureus WT strain and a QS mutant strain (lacking AgrBD, proteins critical for QS) were cultured for 24 hours and the sliding times of droplets of these cultures on LC-infused SLIPS were measured. […]

The test system of data set [4] is S. aureus QS. Particulars: cited from earlier work.

For `CCCCCCCCCCCC[N+](C)(C)C.[Br-]` [DTAB, dodecyl-trimethylammonium bromide], the limiting surface area in data set [1] is 55-63 Å^2.

Consider `CCCCCCCCCCCCOS(=O)(=O)[O-].[Na+]` [SDS, Sodium dodecyl sulfate], for which the “droplet base diameter on LC-infused SLIPS” value in data set [2] turned out to be 4.14±0.02 mm.

On to AIP-III D4A, for which the “sliding time of culture droplets” value in data set [3] was around 7 s. The “concentration that fully inhibits S. aureus QS” value in data set [4] is at least 1 nM.
